Assay results: US20030176511A1, “Compositions and methods for treating cardiovascular disorders” (priority 2000, published 2003)
One block for each molecule: values may come before it.

Assays:
[1] = tested on: tocopherol-mediated peroxidation (TMP); assay: Anti-TMP index; type: biochemical
α-tocopheroxyl radical = assay: Tocopheroxyl radical attenuating ability (TRAA); type: biochemical; conditions: kobs in presence (+) or absence (−) of test compound
[2] = tested on: restenosis in rabbit abdominal aorta after arterial balloon injury; assay: Intimal thickening (intima and media ratio) in rabbit aorta after arterial balloon injury; type: in vivo; conditions: rabbits, 0.02% PDA474 in chow for 9 weeks
Description: The intima and media ratio (IMR) was determined by tracing the intimal and medial areas, and dividing their respective total pixel numbers. Higher IMR indicate larger lesions. *Denotes a statistically significant difference with p<0.05.
PDA474 was synthesised and supplied in pure form (99%) by Polysciences, Inc. (400 Valley Road, Warrington, Pa. 18976, USA).
Twelve New Zealand White rabbits were fed a standard rabbit chow (100 g per day) with (n=6) or without (n=6) 0.02 weight % PDA474 (in dry powder form) for 9 weeks. The initial dosage was based on in vitro studies and other useful dosage amounts can be easily derived using a similar approach.
At the end of week 3, the abdominal aorta of all rabbits was injured by ABI. At the end of week 9, the infra-renal abdominal aorta was removed, fixed in 4% buffered formalin, embedded in paraffin, sectioned and stained with Verhoeff Hematoxylin. The intima and media ratio (IMR) was then determined by tracing the intimal and medial areas, and dividing their respective total pixel numbers. Higher IMR indicate larger lesions.

[3] = tested on: atherosclerotic lesions in apoE−/− mice; assay: Atherosclerotic lesion cross-section areas (morphometry) in apoE−/− mice; type: in vivo; conditions: lesion area of probucol group relative to controls
Description: Male C57BL/6J mice, homozygous for the disrupted apoE gene (apoE−/−) were fed standard chow (Lab-Feed, Sydney, Australia) until aged 10 weeks. […] The high fat diet (control and probucol-supplemented) was prepared, according to the specifications of the Harlan Teklad diet TD88137. […] After bleeding, mice were gravity-perfused for 5 min with DPBS containing 20 μM BHT and 1 mM EDTA (Buffer A) and aortas removed as described in Letters JM, et al (1999). Briefly, hearts, ascending and descending aortas (past the femoral junction) were excised and carefully cleaned. […] Once cleaned, aortas were separated from the heart taking care to include all aortic material while avoiding heart tissue. To obtain sufficient material for HPLC analysis (i.e., 30-40 mg wet weight tissue) it was necessary to pool 7-8 aortas. Separate pools of aortas were prepared for both groups and then immediately frozen in Buffer A and stored at −80° C. until analyses. Lesions were assessed at four different sites along the aorta, in the aortic root, in the aortic arch, the descending thoracic and in the proximal abdominal aorta, and cross-sections (2-3 μm thick) were prepared and stained with Weigert's hematoxylin-van Gieson.

[4] = tested on: lipoprotein oxidation in the vessel wall; assay: Aortic lipids, oxidised lipids and antioxidants in apoE−/− mice (HPLC of aortic homogenates); type: in vivo
Description: Male C57BL/6J mice, homozygous for the disrupted apoE gene (apoE−/−) were fed standard chow (Lab-Feed, Sydney, Australia) until aged 10 weeks. […] After bleeding, mice were gravity-perfused for 5 min with DPBS containing 20 μM BHT and 1 mM EDTA (Buffer A) and aortas removed as described in Letters JM, et al (1999). Briefly, hearts, ascending and descending aortas (past the femoral junction) were excised and carefully cleaned. […] Once cleaned, aortas were separated from the heart taking care to include all aortic material while avoiding heart tissue. To obtain sufficient material for HPLC analysis (i.e., 30-40 mg wet weight tissue) it was necessary to pool 7-8 aortas. Separate pools of aortas were prepared for both groups and then immediately frozen in Buffer A and stored at −80° C. until analyses. Pooled aortas were snap frozen in liquid nitrogen, pulverised, resuspended in Buffer A, homogenised and then either treated with metaphosphoric acid (for ascorbate) or extracted and the hexane fraction analysed for lipid-soluble antioxidants, cholesterol (C), choleseteryl esters (CE), lipid hydroperoxides (LOOH) and cholesteryl ester hydroxides (CE-OH) by HPLC as described in Methods Enzymol. 1994;233:469489. LOOH and CE-OH were measured as markers of lipoprotein lipid oxidation, as they are the primary and major oxidation products formed when lipoproteins from apoE−/− mice undergo oxidation. […] All compounds were quantified by peak area comparison with authentic standards, and protein determined.

[5] = Plasma lipids and antioxidants in apoE−/− mice; type: in vivo
Description: Male C57BL/6J mice, homozygous for the disrupted apoE gene (apoE−/−) were fed standard chow (Lab-Feed, Sydney, Australia) until aged 10 weeks. […] Separate aliquots were acidified with metaphosphoric acid (5%) to stabilize vitamin C prior to freezing and storage at −80° C. The remainder was pooled appropriately and used for ex vivo oxidation initiated by the peroxyl radical generator AAPH and lipoprotein separation by FPLC with UV280nm detection, as described in J Lipid Res. 1 999;40:1104-1112. Lipid-soluble antioxidants and lipids were quantified by HPLC as described in FASEB J. 1999;13:667-675. For ascorbate analysis, frozen acidified samples were thawed, diluted with DPBS to adjust the pH to 7.4 and then immediately subjected to HPLC. Plasma triglycerides were determined enzymatically (Boehringer, Mannheim, Germany).

[6] = Lipids and antioxidants in plasma lipoprotein fractions (size exclusion FPLC) of apoE−/− mice; type: in vivo; conditions: pooled plasma, 1% w/w probucol, 24 weeks
Description: Plasma was collected from individual mice, pooled, diluted 1:10 with buffer used for FPLC and 300 μL subjected to size exclusion chromatography. Chromatograms shown are representative of two analyses of independent pooled plasma samples. The horizontal bars indicate the corresponding fractions collected for each lipoprotein pool. Plasma was obtained from control and probucol mice and aliquots frozen for subsequent determination of lipids. Separate aliquots were acidified with metaphosphoric acid (5%) to stabilize vitamin C prior to freezing and storage at −80° C. The remainder was pooled appropriately and used for ex vivo oxidation initiated by the peroxyl radical generator AAPH and lipoprotein separation by FPLC with UV280nm detection, as described in J Lipid Res. 1 999;40:1104-1112. […] Two consecutive separations each employing 300 μL undiluted plasma were carried out. The corresponding eluents from both injections were collected, pooled according to fractions corresponding to very low-density lipoprotein (VLDL), LDL, and HDL plus mouse serum albumin (see FIG. 3) and then extracted and analysed for lipids and antioxidants.

plasma lipids = assay: Ex vivo AAPH-induced oxidation of plasma from apoE−/− mice; type: in vivo; conditions: plasma from probucol-treated mice, 5 mM AAPH, 37° C.
Description: Pooled plasma obtained from control (open symbols) or probucol-treated (closed symbols) mice was exposed to 5 mM of the aqueous peroxyl radical generator AAPH and incubated under air at 37° C. […] Data shown are mean±SD of a single oxidation experiment performed in triplicate using pooled plasma. Where error bars are not shown, error is smaller than the symbol.
Plasma was obtained from control and probucol mice and aliquots frozen for subsequent determination of lipids. Separate aliquots were acidified with metaphosphoric acid (5%) to stabilize vitamin C prior to freezing and storage at −80° C. The remainder was pooled appropriately and used for ex vivo oxidation initiated by the peroxyl radical generator AAPH and lipoprotein separation by FPLC with UV280nm detection, as described in J Lipid Res. 1 999;40:1104-1112.
Enhanced resistance of plasma lipoproteins to oxidation is often used as a measure of antioxidant efficacy. Therefore, we examined AAPH-induced oxidation of pooled plasma from control and treated animals. […] These observations can be explained readily on the basis of tocopherol-mediated peroxidation.

[7] = tested on: atherosclerosis/restenosis in ballooned New Zealand White rabbits; assay: Atherosclerosis/restenosis in cholesterol-fed, ballooned New Zealand White rabbits; type: in vivo; conditions: 2% cholesterol diet with 1% probucol for 6 weeks
Description: Aortic endothelial denudation was performed at week 3 by withdrawing an inflated 3F Fogarty balloon embolectomy catheter three times down the length of the aorta. Plasma was obtained from animals as described in Example 1 at the start and end of the study. At the end of the study period, individual aortas were removed and prepared for HPLC analysis as in Example 1. Lipids and antioxidants including probucol and its metabolites, bisphenol and diphenoquinone, were analyzed by RP-HPLC as described previously. Aortas designated for histology were perfusion-fixed with 4% (v/v) formaldehyde and transferred into formalin. Cross-sections (2-3 μm thick) were prepared and stained with Weigert's hematoxylin-van Gieson, and the intima to media ratio determined for three sections.

[8] = tested on: coronary restenosis after BA; conditions: probucol given alone, compared to the placebo, MVP trial; cited from earlier work
[9] = compared to controls, per protein

SMILES: Cc1cc(C(C)(C)C)c(O)c(C(C)(C)C)c1 [BHT]
Anti-TMP index [1]: 8-10
TRAA (decay of α-tocopheroxyl radical; kobs(+)/kobs(−)) (α-tocopheroxyl radical): Immediate decay

SMILES: CC(C)(C)c1cc(SSc2cc(C(C)(C)C)c(O)c(C(C)(C)C)c2)cc(C(C)(C)C)c1O [PDA474]
lower IMR in drug-treated animals vs control [2]: 34%
intima and media ratio (IMR) ([2]; ABI at end of week 3, mean±SEM, n=6): 0.76±0.13

drug metabolised to bisphenol or diphenoquinone, aorta ([4]; aorta): ~11%
drug converted into bisphenol or diphenoquinone, plasma ([5]; plasma): ~8%
SMILES: CC(C)(Sc1cc(C(C)(C)C)c(O)c(C(C)(C)C)c1)Sc1cc(C(C)(C)C)c(O)c(C(C)(C)C)c1 [Probucol]
Treatment effect, Abdominal Aorta [3]: 10%
Treatment effect, Arch [3]: 44%
Treatment effect, Descending Thoracic Aorta [3]: 15%
decrease of aortic concentration of C [4, 9]: 5.6 fold
decrease of aortic concentration of total CoQ (ubiquinones plus ubiquinols) [4, 9]: 2.5 fold
decrease of aortic concentration of vitamin E [4, 9]: 2.9 fold
Plasma Triglyceride ([5]; apoE−/− mice, probucol-supplemented diet, 24 weeks): 0.4 ± 0.0 mM
increase of plasma ascorbate ([5]; plasma, probucol treated vs control mice): ~1.4 fold
-TOH in HDL fraction ([6]; HDL plus mouse serum albumin): 1.4
C20:4 in HDL fraction ([6]; HDL plus mouse serum albumin): 24.0
C in HDL fraction ([6]; HDL plus mouse serum albumin): 0.12
Total CoQ in HDL fraction ([6]; HDL plus mouse serum albumin): 0.1
-TOH in LDL fraction ([6]; LDL): 7.8
C20:4 in LDL fraction ([6]; LDL): 50.4
C in LDL fraction ([6]; LDL): 0.96
Total CoQ in LDL fraction ([6]; LDL): 0.4
-TOH in VLDL fraction ([6]; VLDL): 0.56
C18:2 in VLDL fraction ([6]; VLDL): 340
Total CoQ in VLDL fraction ([6]; VLDL): 0.1
probucol level during the oxidation period (plasma lipids): remained unchanged
onset and initial rate of accumulation of CE-O(O)H (plasma lipids; vs control plasma): delayed and decreased respectively
proportion of aortic lipids that was oxidized [7]: not affected
atherosclerosis ([7]; aortic denudation at week 3): significantly decreased atherosclerosis
content of plasma and aortic lipids, and absolute amounts of oxidized lipids ([7]; vs controls): significantly decreased
reduction of angiographic lumen loss [8]: 68%
reduction of need for repeat angioplasty at 6 months [8]: 58%
reduction of restenosis rate per segment [8]: 47%
